#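 Tested at 5 concentrations; 48 h exposure; 96-well plates; endpoints linearly interpolated, else capped at highest concentration. At the GI50, growth is halved. TGI is the concentration that stops growth completely.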
# Key:
# Assay in all cases: growth of human tumour cells (NCI), 48 h
# A549 NSCLC = tested on: A549 NSCLC
# HCC-2998 colon = tested on: HCC-2998 colon
# HCT-116 colon = tested on: HCT-116 colon
# HL-60(TB) leukemia = tested on: HL-60(TB) leukemia
# HOP-92 NSCLC = tested on: HOP-92 NSCLC
# KM12 colon = tested on: KM12 colon
# NCI-H522 lung = tested on: NCI-H522 lung
# OVCAR-4 ovarian = tested on: OVCAR-4 ovarian
# SK-OV-3 ovarian = tested on: SK-OV-3 ovarian
# U251 CNS = tested on: U251 CNS
Structure (SMILES),GI50 (A549 NSCLC),TGI (A549 NSCLC),GI50 (HCC-2998 colon),TGI (HCC-2998 colon),GI50 (HCT-116 colon),TGI (HCT-116 colon),GI50 (HL-60(TB) leukemia),TGI (HL-60(TB) leukemia),GI50 (HOP-92 NSCLC),TGI (HOP-92 NSCLC),GI50 (KM12 colon),TGI (KM12 colon),GI50 (NCI-H522 lung),TGI (NCI-H522 lung),GI50 (OVCAR-4 ovarian),TGI (OVCAR-4 ovarian),GI50 (SK-OV-3 ovarian),TGI (SK-OV-3 ovarian),GI50 (U251 CNS),TGI (U251 CNS)
O=C1OCC2=C1C(c1cccc(C(F)(F)F)c1)c1cc3c(cc1N2CCO)OCCO3 (configuration not stated),1.53 µM,> 33.3 µM,1.1 µM,> 33.3 µM,1.42 µM,> 33.3 µM,0.875 µM,2.44 µM,2.7 µM,> 33.3 µM,1.08 µM,> 33.3 µM,0.488 µM,2.89 µM,6.41 µM,> 33.3 µM,1.29 µM,> 33.3 µM,1.36 µM,> 33.3 µM
CC(=O)c1c[nH]c2ccc(-c3ccnc(Nc4ccc(NC(=O)C5CCCC5)c(CN5CCOCC5)c4)n3)cc12,0.0312 µM,1.54 µM,0.0444 µM,0.6 µM,0.0138 µM,0.953 µM,0.0253 µM,0.0727 µM,0.0284 µM,0.365 µM,0.0258 µM,0.141 µM,0.0439 µM,0.309 µM,0.0453 µM,0.573 µM,0.0454 µM,> 100 µM,0.0316 µM,
Nc1nc(Cl)nc2c1ncn2C1OC(CO)C(O)C1F (configuration not stated),0.144 µM,> 100 µM,< 0.0304 µM,,0.0322 µM,> 100 µM,0.308 µM,> 100 µM,0.124 µM,> 68 µM,1.8 µM,> 100 µM,> 68.2 µM,> 100 µM,> 82.2 µM,> 100 µM,0.355 µM,> 100 µM,0.213 µM,> 100 µM
Nc1c(C(=O)c2cccc(C(O)CO)c2)cnn1-c1ccc(F)cc1 (configuration not stated),> 25 µM,> 25 µM,> 25 µM,> 25 µM,> 25 µM,> 25 µM,> 12.9 µM,> 25 µM,> 25 µM,> 25 µM,> 25 µM,> 25 µM,> 25 µM,> 25 µM,> 25 µM,> 25 µM,> 25 µM,> 25 µM,> 25 µM,> 25 µM
O=C1C(Cl)=C(Cl)C(=O)N1c1ccc(Cl)c(Cl)c1Cl,,> 100 µM,,> 100 µM,,> 100 µM,,46.2 µM,,88.5 µM,,> 100 µM,,28.8 µM,,> 100 µM,,> 100 µM,,> 100 µM
COc1cc(C2c3cc4c(cc3OC(O)C2C)OCO4)cc(OC)c1OC (configuration not stated),,,,> 41.8 µM,,> 69.9 µM,,0.503 µM,,7.53 µM,,27.2 µM,,0.713 µM,,> 79.4 µM,,23.3 µM,,> 40.1 µM
CN1CCN(C(=O)c2ccc(NC(=O)Nc3ccc(-c4nc(N5CCOCC5)c5cccn5n4)cc3)cc2)CC1,0.0606 µM,12.1 µM,0.0352 µM,11.8 µM,0.0507 µM,15.2 µM,0.101 µM,5.21 µM,0.0193 µM,0.0759 µM,0.0787 µM,13.7 µM,0.0357 µM,16.9 µM,0.0149 µM,0.095 µM,0.0223 µM,0.121 µM,0.0464 µM,10.3 µM
O=c1[nH]c2ccccc2c(O)c1/C=N/C(=S)NC1CCCCC1,,> 100 µM,,> 100 µM,,> 100 µM,,> 100 µM,,> 100 µM,,> 100 µM,,> 100 µM,,> 100 µM,,> 100 µM,,> 100 µM
COC(=O)CC1(O)C=CC(=O)C=C1,,39.4 µM,,29.4 µM,,26.7 µM,,> 22.6 µM,,22.6 µM,,3.46 µM,,4.04 µM,,11.6 µM,,29.6 µM,,18.5 µM
Cc1ccc(S(=O)(=O)n2cc([C@@]3(O)C[C@H](CSC#N)OC3=O)c3ccccc32)cc1,29.2 µM,> 100 µM,27 µM,> 100 µM,5.07 µM,17.7 µM,3.5 µM,12.2 µM,23.9 µM,71.3 µM,4.65 µM,23 µM,3.99 µM,18.1 µM,15.6 µM,43.3 µM,58.8 µM,> 100 µM,12.8 µM,32.7 µM
COc1cc(OC)c2c(=O)cc(-c3ccccc3OCc3ccccc3)oc2c1OC,63.5 µM,> 100 µM,2.39 µM,7.54 µM,9.22 µM,50.5 µM,> 100 µM,> 100 µM,2.63 µM,18.6 µM,3.25 µM,16.2 µM,50.7 µM,> 100 µM,6.32 µM,> 100 µM,98 µM,> 100 µM,9.59 µM,> 100 µM
C1CSC[C@H]2COC[C@@H](CSCCS1)S2,,> 100 µM,,> 100 µM,,> 100 µM,,> 100 µM,,> 100 µM,,> 100 µM,,> 100 µM,,> 100 µM,,,,> 100 µM
COc1cc2c(cc1OC)C(C(CBr)CBr)N(C1CCCC1)CC2 (configuration not stated),,> 100 µM,,> 100 µM,,,,> 100 µM,,> 100 µM,,> 100 µM,,> 100 µM,,> 100 µM,,> 100 µM,,> 100 µM
CC(C)C1(NC(=O)C2CC3c4cccc5[nH]cc(c45)CC3N(C)C2)OC2(O)C3CCCN3C(=O)C(Cc3ccccc3)N2C1=O (configuration not stated),,> 100 µM,,> 100 µM,,> 100 µM,,24.9 µM,,> 100 µM,,82.2 µM,,> 100 µM,,> 100 µM,,,,> 100 µM
COC(=O)c1onc(C2OC(C)(C)OC2C(O)COC(c2ccccc2)(c2ccccc2)c2ccccc2)c1C(=O)OC (configuration not stated),,> 100 µM,,> 100 µM,,> 100 µM,,> 100 µM,,> 100 µM,,> 100 µM,,> 100 µM,,> 100 µM,,,,> 100 µM
CCc1ccc2oc(=O)ccc2c1,,> 100 µM,,> 100 µM,,> 100 µM,,> 100 µM,,> 100 µM,,> 100 µM,,> 100 µM,,> 100 µM,,,,> 100 µM

# From PubChem BioAssay (NCI)
